Experimental data: ChEMBL document CHEMBL4118227, “Hexahydrobenzophenanthridine alkaloids from Corydalis bungeana Turcz. and their anti-inflammatory activity” (Bioorg Med Chem Lett, 2018)

Test system: RAW264.7
Assay: Antiinflammatory activity against mouse RAW264.7 cells assessed as inhibition of LPS induced nitric oxide production preincubated for 2 hrs followed by LPS challenge measured after 24 hrs by Griess reagent based assay
Assay type: functional, cell-based

SMILES | IC50 [nM]
CN1Cc2c(ccc3c2OCO3)[C@@]2(C)[C@@H](O)Cc3cc4c(cc3[C@@H]12)OCO4 | 2510
CC(=O)O[C@H]1Cc2cc3c(cc2[C@H]2[C@@]1(C)c1ccc4c(c1C[N@@+]2(C)[O-])OCO4)OCO3 | 33800
C[C@@]12c3ccc4c(c3C[N@@+](C)([O-])[C@H]1c1cc3c(cc1C[C@@H]2O)OCO3)OCO4 | 2790
CC(=O)O[C@H]1Cc2cc3c(cc2[C@H]2N(C)Cc4c(ccc5c4OCO5)[C@@]12C)OCO3 | 23100
CC(=O)O[C@H]1Cc2cc3c(cc2[C@@H]2N(C)Cc4c(ccc5c4OCO5)[C@@]12C)OCO3 | 1000
CN(C)c1ccc(O)c2c1C[C@H]1C[C@H]3[C@H](N(C)C)C(O)=C(C(N)=O)C(=O)[C@@]3(O)C(O)=C1C2=O [MINOCYCLINE] | 31300

More lines, in order of falling IC50, values ahead:

IC50 [nM] | SMILES
2260 | CC(=O)O[C@H]1Cc2cc3c(cc2[C@@H]2[C@@]1(C)c1ccc4c(c1C[N@@+]2(C)[O-])OCO4)OCO3
2190 | COC(=O)C[C@H]1c2c(ccc3c2OCO3)[C@@]2(C)[C@@H](OC(C)=O)Cc3cc4c(cc3[C@@H]2N1C)OCO4
2030 | COC(=O)C[C@H]1c2c(ccc3c2OCO3)[C@@]2(C)[C@@H](OC(C)=O)Cc3cc4c(cc3[C@H]2N1C)OCO4
1880 | COc1cc2c(cc1O)C1Cc3ccc4c(c3CN1CC2)OCO4 (stereo not given) [CHEILANTHIFOLINE]
